The text below walks through data of patent US7879795B2, “Enhancement of tigecycline potency using efflux pump inhibitors” (Mpex Pharmaceuticals, Inc., priority 2004, dated 2011).

The subject of series [1] is strain PAM1723 of P. aeruginosa. Type of series: in vitro ADME. Conditions: in words. As to the method: Stability of compounds was also evaluated using a bioassay. The test compound at 320 μg/ml was treated with rabbit kidney supernatant for 0, 0.5, 1 and 2 hours.
The subject of the next series is PAM1723. Conditions: Table 3. As to the method:
Stability in rat and human serum was also evaluated using a bioassay. 320 μg/ml of the test compound was treated with 50% serum for 4 hours.
Bioassays as described in Example 62 and Example 65 were used to evaluate the stability of various compounds in serum and rabbit kidney homogenates.

Series [2] in a line: Acute toxicity, minimal lethal dose after IV bolus in mice. The format is in vivo, mouse. Conditions: IV bolus into tail vein, lethal for at least one of three mice. As to the method: Acute toxicity was measured as minimal lethal dose (MLD). MLD is defined as a minimal concentration of a compound that has lethal effect for at least one mouse from the group of three mice after IV bolus injection into the mouse tail vein.

The test system of series [3] is PAM 1323, mexZ, MexXY-OprM over-expressed, MexAB-OprM low level. Briefly: microbe, parasite or virus in culture. Conditions: PAM 1323. The format is cell-based, P. aeruginosa. Further details: Tigecycline MIC in the presence of Compound 21: unit not given here. As to the method: (§1) The ability of compound 21 to increase susceptibility to tigecycline was also assessed. The tigecycline potentiating activity of compound 21 was assessed by the checkerboard assay (Antimicrobial Combinations, Antibiotics in Laboratory Medicine, ed. Victor Lorian, M.D., Fourth edition, 1996, pp 333-338, which is incorporated herein by reference in its entirety) using a broth micro-dilution method performed as recommended by the CSLI (Clinical and Laboratory Standards Institute, formerly NCCLS) guidelines (National Committee for Clinical Laboratory Standards 2003. Methods for Dilution Antimicrobial Susceptibility Tests for Bacteria That Grow Aerobically—Sixth Edition; Approved Standard. NCCLS Document M7-A6, Vol 20 No. 2). In this assay, multiple dilutions of the two drugs, compound 21 and tigecycline, were tested alone and in combination, at concentrations equal to, above and below their respective minimal inhibitory concentrations (MICs). […] The stock solution was further diluted in Mueller Hinton Broth (MHB). Stock solutions were stored at −80° C.
(§2) The checkerboard assay was performed in microtiter plates. Tigecycline was diluted in the x axis, each column containing a single concentration of tigecycline. Compound 21 was diluted in the y axis, each row containing an equal concentration of the EPI. […] The assay was performed in MHB with a final bacterial inoculum of 5×10^5 CFU/ml (from an early-log phase culture). The microtiter plates were incubated for 20 hours at 35° C. and then read using a microtiter plate reader (Molecular Devices) at 650 nm, as well as by visual observation using a microtiter plate-reading mirror.

Series [4] deals with PAM 1723, MexAB-OprM over-expressed, ΔMexCD-OprJ ΔMexEF-OprN. Briefly: microbe, parasite or virus in culture. Type of series: cell-based, P. aeruginosa. Conditions: PAM 1723. Further details: Tigecycline MIC in the presence of Compound 21: unit not given here. As to the method:
as §1, §2

The test system of series [5] is PAM 1738, MexCD-OprJ over-expressed, ΔMexAB-OprM ΔMexEF-OprN. Put plainly: microbe, parasite or virus in culture. Type of series: cell-based, P. aeruginosa. Further details: Tigecycline MIC in the presence of Compound 21: unit not given here. Conditions: PAM 1738. The method, then:
as §1, §2

Series [6] relates to PAM 2466, mexR1, MexAB-OprM and MexXY-OprM over-expressed. Put plainly: microbe, parasite or virus in culture. The format is cell-based, P. aeruginosa. Also noted: Tigecycline MIC in the presence of Compound 21: unit not given here. Conditions: PAM 2466. The method, then:
as §1, §2

Series [7] concerns Enterobacter aerogenes 19. Put plainly: Antibiotic MIC with fixed concentration of compound 21, Enterobacter aerogenes 19. Type of series: cell-based.
Series [8] has as its system Burkholderia, Proteus, Morganella, Providencia and Serratia. Put plainly: Potentiation of tigecycline against other gram-negative clinical isolates. Type of series: cell-based. Conditions: in words. As to the method: To further characterize the clinical potential of tigecycline/EPI combinations, the microbiological activity of tigecycline in combination with compound 21 was investigated using clinical isolates of P. aeruginosa and other gram-negative bacteria. In several experiments, described below, the impact of a fixed concentration of compound 21 (2.5 μg/ml) on susceptibility to tigecycline was determined.
Strains with decreased susceptibility to tigecycline were also present among representatives of Burkholderia, Proteus, Morganella, Providencia and Serratia. […] While not being bound by any particular theory, it is probable that the lack of potentiation by compound 21 is due to limited uptake of this particular EPI across the outer membrane of these bacteria, rather than the absence of efflux pumps.

Series [9] concerns Klebsiella pneumonia, Proteus mirabilis, Morganella morganii, P. aeruginosa strains. Put plainly: Tigecycline susceptibility of various bacterial strains in combination with compound 21 (Example 85). Conditions: Example 85, written in present tense. The format is cell-based. The method, then: Standard CLSI methods for antimicrobial susceptibility testing, as outlined in National Committee for Clinical Laboratory Standards 2003, Methods for Dilution Antimicrobial Susceptibility Tests for Bacteria That Grow Aerobically—-6th ed., Approved Standard, NCCLS Document M7-A6, Vol 20 No. 2., are used to assess the activity of tigecycline in combination with compound 21. The following strains are tested: • Klebsiella pneumonia: G340, G595, G815, GC7335, GC7736, GC7737, tigecycline resistant mutants derived from G595 and G815 • Proteus mirabilis: G151, GC 7020, GC 6899, GC 6900, GC 7018, GC 7019 • Morganella morganii: G858, G1492, GC7676, GC7677, GC7743, GC7744 • P. aeruginosa: K767, K1523, K1525, XY1, XY3, K153, BXY1, BXY4, K1119, M1, M9, K1455.
Clinical isolates enriched with strains having a decreased susceptibility to tigecycline are also tested.

As for `NCCC[C@H](N)C(=O)N[C@H](CCc1ccccc1)C(=O)Nc1cnc2ccccc2c1` [Compound 3, 2-(S),5-Diamino-pentanoic acid [3-phenyl-1-(R)-(quinolin-3-ylcarbamoyl)-propyl]-amide], the “change of EPI activity after treatment with supernatant of rabbit kidney homogenate” value in series [1] is given as “time-dependent reduction of the EPI activity”. Moreover, the “EPI MPC8 after 4 hours at 37° C., Frosen Human serum” value in the series on PAM1723 (50% human serum) stood at 5. Further, the “EPI MPC8 after 4 hours at 37° C., Frozen Rat serum” value with PAM1723 (50% rat serum) is 5. In the series with PAM1723 (saline), the “EPI MPC8 after 4 hours at 37° C., Saline” value was determined as 5. Moreover, the “MLD (minimal lethal dose)” value in series [2] is 25 mg/kg.
Turning to `NCCC[C@H](N)C(=O)N[C@H](Cc1ccc(C(F)(F)F)cc1)C(=O)Nc1cnc2ccccc2c1` [Compound 21, 2-(S),5-Diamino-pentanoic acid [1-(R)-(quinolin-3-ylcarbamoyl)-2-(4-trifluoromethyl-phenyl)-ethyl]amide], the “Tigecycline MIC in the presence of Compound 21” value (shortened to “Tigecycline MIC in the presence”) in series [3] (Compound 21 0.625 μg/ml) came to 2; in [3] (Compound 21 1.25 μg/ml) it was 1; in [3] (Compound 21 5 μg/ml) it was 0.5; in series [3] (Compound 21 10 μg/ml), 0.5; in [3] (Compound 21 20 μg/ml) it was 0.5; in [3] (Compound 21 40 μg/ml), 0.5. For the same molecule, the “Tigecycline MIC in the presence” value in series [3] (Compound 21 […]) was determined as 0.5; in series [4] (Compound 21 0.625 μg/ml), 4; in [4] (Compound 21 1.25 μg/ml), 2; in series [4] (Compound 21 5 μg/ml) it was 0.5; in [4] (Compound 21 10 μg/ml) it was 0.5; in series [4] (Compound 21 20 μg/ml), 0.5. Also, the “Tigecycline MIC in the presence” value in series [4] (Compound 21 40 μg/ml) is reported as 0.5; in series [4] (Compound 21 […]), 0.5; in series [5] (Compound 21 0.625 μg/ml) it was 1; in series [5] (Compound 21 1.25 μg/ml) it was 0.5; in series [5] (Compound 21 5 μg/ml), 0.25; in series [5] (Compound 21 10 μg/ml) it was 0.25. The “Tigecycline MIC in the presence” value in [5] (Compound 21 20 μg/ml) was 0.25; in series [5] (Compound 21 40 μg/ml) it was 0.25; in series [5] (Compound 21 […]), 0.25; in [6] (Compound 21 0.625 μg/ml), 4; in series [6] (Compound 21 1.25 μg/ml), 2; in series [6] (Compound 21 5 μg/ml) it was 0.5. For the same molecule, the “Tigecycline MIC in the presence” value in series [6] (Compound 21 10 μg/ml), in series [6] (Compound 21 20 μg/ml), in series [6] (Compound 21 40 μg/ml) and in series [6] (Compound 21 […]) was 0.5 in each case. For the same molecule, in series [7] (azithromycin MIC with compound 21), the “Azi + EPI (MIC)” value is recorded as 0.5. In series [7] (levofloxacin MIC with compound 21 at […]), the “Levo + EPI at […] (MIC)” value is on record as 16. Moreover, the “Tig + EPI at […] (MIC)” value in [7] (tigecycline MIC with compound 21 at […]) is given as 0.25. Moreover, the “effect on susceptibility to tigecycline” value in series [8] is “did not decreased susceptibility to tigecycline”. Besides, the “effect on development of resistance to tigecycline” value in series [9] is reported as “reduces the development of resistance”. In addition, the “effect on resistance to tigecycline in bacterial strains” value in series [9] is given as “decreases resistance to tigecycline”. Further, the “effect on susceptibility of the strains to tigecycline” value in [9] is on record as “increases the susceptibility of the strains to tigecycline”.
